Measurements: patent US8663715B2, “Compositions, products, therapeutic uses and procedures for the production and/or crystallization of extracts of Encelia canescens LAM (coronilla de fraile)” (Naturaleza Y Fe Ldta, priority 2010, dated 2014)
One block for each compound: values may come before it.

What was measured:
CF-1 strain mice [1] = experiment: Topical analgesic activity: tail formalin test; format: in vivo; conditions: topical 5% solution; from medians of treated and control group
Method: The in vivo biological study evaluated the toxicity, oral analgesic activity and topical analgesic activity in the global methanolic extract of Encelia canescens Lam. For these assessments not inbred males CF-1 strain mice were used, whose weight varied between 14 to 20 g and age between 30 to 35 days. In all evaluations, animals were kept in fasting for 12 hours prior to each test with water ad libitum at room temperature.
Each test was carried out with 10 animals, leaving 2 of them as controls, adding these to a “pool” of animal controls, in total were a group of 16 control animals. At the end of the tests, the animals were sacrificed by cervical dislocation, a painless method.
For all tests, the pharmacological effect was calculated using the values of the median, as a measure of central tendency of the data and standard error of the median (SEM) as measure of dispersion.
Results were analyzed by the non-parametric statistical method of Wilcoxon for independent data (Hollander and Wolfe, 1973), considering significant if its p≦0.05.
This test is intended to determine the analgesic activity via topical of global methanol extract (EMG) of Encella canescens Lam. […] Then, the time of licking which makes the mouse at the site of injection for five minutes, was counted. […] The topical analgesic activity was calculated using the following formula. % D=(Cm/Cc)×100 where: % D: percentage of pain. […]

CF-1 strain mice [2] = experiment: Oral analgesia: abdominal twisting induced by acetic acid; format: in vivo; conditions: extract 200 mg/kg in arabic gum, dose of reference drug not given
[3] = Antioxidant evaluation in system lacase-ABTS; format: biochemical
Method: In addition, the antioxidant capacity was analyzed using the system lacase-ABTS (2,2-azino-bis-3-ethyl-benzo-thiazolin-6-sulfonic) that allows to establish in a comparative way the oxidation of substrates, denoting of indirect way the antioxidant capacity of a sample (Table 7).

SMILES: CC(C)Cc1ccc(C(C)C(=O)O)cc1 (stereo not drawn) [Ibuprofen]
% AAT percentage of the topical analgesic activity (% A 1) (CF-1 strain mice [1]): 76.53%

SMILES: COc1ccc2cc([C@H](C)C(=O)O)ccc2c1 [Naproxen Sodium, Naproxen sodium]
% E percentage of analgesic effect (with median, final) (CF-1 strain mice [2]): 70%

Antioxidant activity IC50 [3]: 1970 µg/mL
SMILES: Cc1c(C)c2c(c(C)c1O)CCC(C)(C(=O)O)O2 (stereo not drawn) [Trolox ®, Trolox]
